Measurements as given in US20080227748A1, “Medicament Made From Laminarine or Oligolaminarines For Treatment of Septicemia and Septic Shock” (LABORATOIRES GOEMAR, priority 2005, published 2008).

Assay: Feeding treatment with Dectinan-enriched diet before injection of LPS (weight, consumption, glycemia, triglyceridemia, feces)
Parameters: species or system male Wistar Han rats
Details: rat, in vivo
Protocol: The animals selected for the abovesaid studies were male Wistar Han rats (Harlem, Netherlands).
The experiments were carried out on two groups of eight rats each.
The rats of one of the two groups—“control group”—had available to them “ad libitum” a standard feed with the AO4 trade name (UAR, France); the rats of the other group had available to them the same feed but supplemented with the above said laminarin, sold under the “Dectinan” trade name; in a first phase and for four days (−4 to −1), the feed was enriched with 5% by weight of Dectinan and then with 10% by weight in a second phase of 21 days (days 0 to 21); this second group of rats is denoted by “Dectinan group”.
The days on which the various withdrawals and measurements are made are identified in table I below.
a) Before injection of LPS • bodyweight • weight of wet feces and feces after freeze drying (collected over 24 h) • weight of the diet and of the drinking water • taking of blood from the caudal vein: quantitative determination of triglycerides and glucose
In this regard, the values mentioned later represent the mean ±SDM (Standard Deviation of the Mean). […]

laminarin [Dectinan®]
Total consumption of drinking water: 611.5 ± 17.9 mL
Total consumption of feed: 431.5 ± 6.0 g
